ChEMBL document CHEMBL5050843, “Amide substituted thiazoles as protein secretion inhibitors” (2019)

Tests used:
[1] = Inhibition of constitutively active VCAMss-Gluc secretion in human Flp-In-T-REx-293 cells measured by Gaussia luciferase reporter gene method; assay type: functional, cell-based
[2] = Inhibition of constitutively active PR1ss-Gluc secretion in human Flp-In-T-REx-293 cells measured by Gaussia luciferase reporter gene method; assay type: functional, cell-based

Compound | IC50 [1] | IC50 [2]
CC(C)(C)c1csc(NC(=O)Cc2cn(CC3CCCCC3)c3ccc(Cl)cc23)n1 | 0.714 µM | > 25 µM
CC(C)(C)c1csc(NC(=O)Cc2c[nH]c3ccccc23)n1 | > 25 µM | > 25 µM
CC(C)(C)c1csc(NC(=O)[C@H](O)c2cccc(Cl)c2)n1 | > 25 µM | > 25 µM
C=CCC(C)(C)c1csc(NC(=O)Cc2csc3ccc(Cl)cc23)n1 | 0.775 µM | > 25 µM
Cc1cccc2scc(CC(=O)Nc3nc(C(C)(C)C)cs3)c12 | 3.2 µM | > 25 µM
CC(C)(C)c1csc(NC(=O)Cc2cc(F)cc(Cl)c2)n1 | 1.91 µM | > 25 µM
CC(C)(C)c1csc(NC(=O)Cc2cn(Cc3ccc(Cl)cc3)c3ccc(Cl)cc23)n1 | 0.325 µM | > 25 µM
CC(C)(C)c1csc(NC(=O)Cc2ccc3cn[nH]c3c2)n1 | > 25 µM | > 25 µM
CC(C)(CCO)c1csc(NC(=O)Cc2csc3ccc(Cl)cc23)n1 | > 25 µM | > 25 µM
CC(C)(C)c1csc(NC(=O)Cc2coc3ccccc23)n1 | 5.3 µM | > 25 µM
Cn1cc(CC(=O)Nc2nc(C(C)(C)C)cs2)c2ccccc21 | 4.51 µM | > 25 µM
Cc1ccc(CC(=O)Nc2nc(C(C)(C)C)cs2)c(C)c1 | 7.45 µM | > 25 µM
CC(C)(C)c1csc(NC(=O)CC2CCCCCC2)n1 | 5.07 µM | > 25 µM
CC1(c2csc(NC(=O)Cc3cn(Cc4ccccc4)c4ccc(Cl)cc34)n2)CC1 | 0.908 µM | > 25 µM
CC(C)(C)c1csc(NC(=O)Cc2cc(Cl)cc(C(F)(F)F)c2)n1 | 1.54 µM | > 25 µM
CC(C)(C)c1csc(NC(=O)Cc2cc(F)c(F)c(F)c2)n1 | 8.18 µM | > 25 µM
Cc1cc(C(=O)Nc2nc(C(C)C)cs2)cs1 | 22.8 µM | 
CC(C)(C)c1csc(NC(=O)Cc2cccnc2)n1 | > 25 µM | > 25 µM
Cn1cc(C(=O)Nc2nc(C(C)(C)C)cs2)cn1 | 22.2 µM | 
CC(C)(C)c1csc(NC(=O)C(C)(C)C2CCCCC2)n1 | 9.01 µM | > 25 µM
CC(C)(C)c1csc(NC(=O)CC2CCCc3ccccc32)n1 (stereo not given) | 9.01 µM | > 25 µM
CC(C)(C)c1csc(NC(=O)Cc2cc3ccccc3s2)n1 | > 25 µM | > 25 µM
COCCC(C)(C)c1csc(NC(=O)Cc2csc3ccc(Cl)cc23)n1 | > 25 µM | > 25 µM
CC(C)(C)c1csc(NC(=O)CC2CCOCC2)n1 | > 25 µM | > 25 µM

The remaining lines, values ahead:

IC50 [1] | IC50 [2] | Compound
6.53 µM | > 25 µM | CC(C)CC(C(=O)Nc1nc(C(C)(C)C)cs1)c1csc2ccc(Cl)cc12 (stereo not given)
4.57 µM | > 25 µM | CC(C)(C)c1csc(NC(=O)Cc2csc3ccc(-c4ccccc4)cc23)n1
3.45 µM | > 25 µM | CC(C)(C)c1csc(NC(=O)Cc2cccc3ccccc23)n1
23.1 µM | > 25 µM | CC(C)(C)c1csc(NC(=O)CCc2csc3ccccc23)n1
0.464 µM | > 25 µM | CC(C)(C)c1csc(NC(=O)Cc2cn(Cc3cccc(Cl)c3)c3ccc(Cl)cc23)n1
15 µM | > 25 µM | CC(C)(C)c1csc(NC(=O)Cc2ccc3ccccc3c2)n1
3.92 µM | > 25 µM | CC(C)(C)c1csc(NC(=O)C(Cc2ccccc2)c2csc3ccc(Cl)cc23)n1 (stereo not given)
2.05 µM | > 25 µM | CC(C)(C)c1csc(NC(=O)Cc2cn(C(=O)c3ccccc3)c3ccc(Cl)cc23)n1
2.08 µM | > 25 µM | CC(C)(C)c1csc(NC(=O)Cc2cn(Cc3ccccn3)c3ccc(Cl)cc23)n1
3.67 µM | > 25 µM | CC(C)(C)c1csc(NC(=O)Cc2cn(Cc3cccnc3)c3ccc(Cl)cc23)n1
1.4 µM | > 25 µM | CC(C)(C)c1csc(NC(=O)Cc2csc3ccc(Br)cc23)n1
3.21 µM | > 25 µM | CC(C(=O)Nc1nc(C(C)(C)C)cs1)c1csc2ccc(Cl)cc12 (stereo not given)
